Assays:
human MMP-8 = target: T1, human MMP-8 (Homo sapiens, UniProt P22894); experiment: MMP enzyme inhibition assay, MMP-8; assay type: biochemical; conditions: pH 7.5, 37° C., 1 hour
T1 construct: purchased Calbiochem

[1] = target: T2, purified aureolysin type I (Staphylococcus aureus, UniProt P81177); experiment: biochemical
T2 construct: purchased BioCentrum Ltd

human MMP-9 = target: T3, human MMP-9 (Homo sapiens, UniProt P14780); experiment: MMP enzyme inhibition assay, MMP-9; assay type: biochemical; conditions: pH 7.5, 37° C., 1 hour
T3 construct: purchased Calbiochem
T3 sequence (P14780 94-707): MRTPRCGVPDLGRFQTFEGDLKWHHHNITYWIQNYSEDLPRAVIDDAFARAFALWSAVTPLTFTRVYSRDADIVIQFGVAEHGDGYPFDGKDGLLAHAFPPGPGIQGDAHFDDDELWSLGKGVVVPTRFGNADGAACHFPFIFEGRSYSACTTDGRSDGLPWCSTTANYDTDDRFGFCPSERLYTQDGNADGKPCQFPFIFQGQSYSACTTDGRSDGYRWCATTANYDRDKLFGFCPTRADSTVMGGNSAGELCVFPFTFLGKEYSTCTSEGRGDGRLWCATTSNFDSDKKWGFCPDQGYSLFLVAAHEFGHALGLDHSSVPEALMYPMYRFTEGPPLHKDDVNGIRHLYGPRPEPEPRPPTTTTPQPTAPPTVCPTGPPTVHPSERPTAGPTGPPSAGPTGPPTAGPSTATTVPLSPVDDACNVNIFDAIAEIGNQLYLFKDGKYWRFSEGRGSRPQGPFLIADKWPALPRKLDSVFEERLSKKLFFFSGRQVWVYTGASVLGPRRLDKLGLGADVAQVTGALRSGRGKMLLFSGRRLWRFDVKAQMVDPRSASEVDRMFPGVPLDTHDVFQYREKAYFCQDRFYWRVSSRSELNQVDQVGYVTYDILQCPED

human MMP-1 = target: T4, human MMP-1 (Homo sapiens, UniProt P03956); experiment: MMP enzyme inhibition assay, MMP-1; assay type: biochemical; conditions: pH 7.5, 37° C., 1 hour
T4 construct: purchased Calbiochem
T4 sequence (P03956 100-469): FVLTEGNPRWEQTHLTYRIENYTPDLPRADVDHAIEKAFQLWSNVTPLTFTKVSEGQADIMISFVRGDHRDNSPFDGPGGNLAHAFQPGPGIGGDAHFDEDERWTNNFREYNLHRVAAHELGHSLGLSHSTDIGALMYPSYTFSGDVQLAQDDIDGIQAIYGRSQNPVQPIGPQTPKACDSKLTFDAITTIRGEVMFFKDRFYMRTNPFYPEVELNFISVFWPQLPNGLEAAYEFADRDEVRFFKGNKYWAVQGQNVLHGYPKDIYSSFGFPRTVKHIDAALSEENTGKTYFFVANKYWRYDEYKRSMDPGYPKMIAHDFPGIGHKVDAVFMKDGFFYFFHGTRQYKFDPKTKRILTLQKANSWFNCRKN

V8 protease = target: T5, V8 protease (Staphylococcus aureus, UniProt P0C1U8); experiment: Selectivity profile, V8 protease; assay type: biochemical; conditions: read-out: inhibition at 0.1 mM, V8 protease
T5 construct: purchased BioCentrum Ltd
T5 sequence (P0C1U8 69-336): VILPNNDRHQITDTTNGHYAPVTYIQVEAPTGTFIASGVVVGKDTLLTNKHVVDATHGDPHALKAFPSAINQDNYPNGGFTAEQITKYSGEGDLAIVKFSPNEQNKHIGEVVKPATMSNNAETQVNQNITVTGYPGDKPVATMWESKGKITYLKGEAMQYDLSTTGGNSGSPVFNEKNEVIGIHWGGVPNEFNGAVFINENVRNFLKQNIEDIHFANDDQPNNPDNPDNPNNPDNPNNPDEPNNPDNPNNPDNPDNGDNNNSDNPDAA
Description: (§1) Inhibitory activity was tested in reaction mixtures (0.1 ml) containing 2% (v/v) DMSO vehicle±compound plus additions as follows. V8 protease: 90 mM MOPS (sodium) buffer pH 7.0, […] calcium chloride, 0.045% Brij 35, 10 μM Mca-Leu-Glu-Val-Asp-Gly-Trp-Lys(Dnp)-amide (Bachem) and V8 (BioCentrum Ltd; 30 ng). Staphopain A and B: 90 mM MOPS (sodium) buffer pH 7.0, 1.8 mM cysteine-HCl (pH-adjusted with NaOH), 0.045% Brij 35, 0.1 mM Z-Phe-Arg-AMC hydrochloride (Bachem) and staphopain A or B (BioCentrum Ltd; 30 ng). Human kallikrein 5: 0.1M sodium phosphate buffer pH 8.0, 0.045% Brij 35, 0.1 mM Boc-Val-Pro-Arg-AMC (Sigma) and recombinant human kallikrein 5 (R&D Systems Inc; 6 ng). Human kallikrein 7: 72 mM Tris-HCl pH 8.0, 0.033% Brij 35, 1.2 mM S-2586 (Chromogenix Instrumentation Laboratory SpA) and recombinant human kallikrein 7 (R&D Systems Inc; 0.6 μg) that had been thermolysin-activated according to the manufacturer's instructions. Human angiotensin-converting enzyme (ACE): 45 mM MES (sodium) buffer pH 6.5, 0.045% Brij 35, 10 μM Mca-[…]Dnp)-OH(R&D Systems Inc) and recombinant human ACE (R&D Systems Inc; 1.3 ng). Human cathepsin D: 0.1M sodium acetate buffer pH 3.5, 0.2M sodium chloride, 0.045% Brij 35, 10 μM Mca-Pro-Leu-Gly-Leu-Dap(Dnp)-Ala-Arg-amide (Bachem) and recombinant human cathepsin D (R&D Systems Inc; 8 ng) activated according to the manufacturer's instructions. […]

[2] = tested on: protease activity in skin wash samples from patients with acute AD; experiment: Protease activity in skin wash samples, fluorogenic enzyme assay; assay type: biochemical, human
Description: A method has been developed to evaluate protease activity in skin washings. Skin washings from patients with acute eczema may be obtained by aspirating 0.5 ml sterile physiological saline over the skin surface using a sterile, disposable plastic Pasteur pipette The skin area ( 1 cm^2) is defined by a sterile open-ended plastic cylinder. […] Samples were incubated at 37° C. in a POLARstar Optima plate reader (BMG Labtech Ltd.) and fluorescence readings (320 nm excitation/405 nm emission) taken every 15 min for 6 h. Activity was expressed as the rate of increase in fluorescence as a function of time.

staphopain B = target: T6, staphopain B (Staphylococcus aureus, UniProt P0C1S6); experiment: Selectivity profile, staphopain B; assay type: biochemical; conditions: read-out: inhibition at 0.1 mM, Staphopain B
T6 construct: purchased BioCentrum Ltd
T6 sequence (P0C1S6 220-393): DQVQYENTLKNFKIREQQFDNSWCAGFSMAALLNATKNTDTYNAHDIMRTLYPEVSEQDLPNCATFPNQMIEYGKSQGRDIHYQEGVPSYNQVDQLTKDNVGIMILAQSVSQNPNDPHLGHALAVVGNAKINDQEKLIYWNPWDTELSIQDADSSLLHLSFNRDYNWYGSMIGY
Description: as §1

S. aureus 8325-4 = experiment: S. aureus viability, viable cell counts; assay type: cell-based, Staphylococcus aureus; conditions: 50 μM compound; 16 h at 37° C.
Description: Brain heart infusion medium (5 ml; Becton Dickinson and Co.) containing 10% skimmed milk and 1% (v/v) DMSO vehicle ±50 μM compound was inoculated with S. aureus 8325-4 (approximately 10^7 cells in tryptic soy broth) and incubated for 16 h at 37° C./220 rpm. Duplicate samples (0.1 ml) were then removed from each culture, diluted into PBS, spread onto brain heart infusion agar (1.5%) and incubated at 37° C.

[3] = target: T7, recombinant human kallikrein 5 (Homo sapiens, UniProt Q9Y337); experiment: Selectivity profile, kallikrein 5; assay type: biochemical; conditions: read-out: inhibition at 0.1 mM, Kallikrein 5
T7 construct: purchased R&D Systems Inc
T7 sequence (Q9Y337 23-293): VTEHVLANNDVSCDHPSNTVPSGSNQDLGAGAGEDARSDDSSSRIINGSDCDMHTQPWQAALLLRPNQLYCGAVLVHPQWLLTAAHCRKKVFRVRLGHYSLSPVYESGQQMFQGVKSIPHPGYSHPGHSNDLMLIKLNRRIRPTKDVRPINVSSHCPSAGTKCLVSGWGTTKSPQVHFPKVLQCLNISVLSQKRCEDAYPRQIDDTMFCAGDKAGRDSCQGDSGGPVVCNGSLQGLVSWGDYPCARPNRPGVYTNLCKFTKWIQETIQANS
Description: as §1

[4] = target: T8, recombinant human cathepsin D (Homo sapiens, UniProt P07339); experiment: Selectivity profile, cathepsin D; assay type: biochemical; conditions: read-out: inhibition at 0.1 mM, Cathepsin D
T8 construct: recombinant human cathepsin D (R&D Systems Inc); purchased R&D Systems Inc
T8 sequence (P07339 65-412): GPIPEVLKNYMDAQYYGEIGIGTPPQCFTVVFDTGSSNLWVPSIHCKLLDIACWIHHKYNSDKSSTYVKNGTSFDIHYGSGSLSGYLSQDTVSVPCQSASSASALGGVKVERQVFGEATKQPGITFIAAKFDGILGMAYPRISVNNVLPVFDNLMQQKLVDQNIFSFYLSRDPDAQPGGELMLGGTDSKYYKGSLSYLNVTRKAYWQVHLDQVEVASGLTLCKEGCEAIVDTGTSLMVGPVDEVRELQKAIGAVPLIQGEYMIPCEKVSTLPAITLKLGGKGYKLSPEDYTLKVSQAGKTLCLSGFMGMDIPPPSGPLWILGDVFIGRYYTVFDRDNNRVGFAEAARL
Description: as §1

T2 sequence (P81177 209-509): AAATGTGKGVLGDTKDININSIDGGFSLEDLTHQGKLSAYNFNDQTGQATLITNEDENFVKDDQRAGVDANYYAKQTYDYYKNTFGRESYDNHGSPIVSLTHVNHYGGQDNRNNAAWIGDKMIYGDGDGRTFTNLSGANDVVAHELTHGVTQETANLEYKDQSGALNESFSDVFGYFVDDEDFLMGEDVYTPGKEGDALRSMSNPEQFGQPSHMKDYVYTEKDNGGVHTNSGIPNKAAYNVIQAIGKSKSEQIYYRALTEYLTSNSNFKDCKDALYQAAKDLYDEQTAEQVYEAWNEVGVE
T1 sequence (P22894 101-467): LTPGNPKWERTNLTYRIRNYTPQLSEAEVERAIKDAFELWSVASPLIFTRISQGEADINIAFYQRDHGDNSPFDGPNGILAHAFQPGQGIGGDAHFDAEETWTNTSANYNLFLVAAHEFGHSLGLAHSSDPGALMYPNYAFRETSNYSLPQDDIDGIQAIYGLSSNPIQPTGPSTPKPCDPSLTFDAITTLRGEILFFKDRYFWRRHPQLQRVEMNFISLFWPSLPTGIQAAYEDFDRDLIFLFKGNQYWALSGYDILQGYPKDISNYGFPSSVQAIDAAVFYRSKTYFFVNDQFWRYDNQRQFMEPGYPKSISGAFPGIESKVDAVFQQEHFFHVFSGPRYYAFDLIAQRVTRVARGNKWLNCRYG

Structure (SMILES): CNC(=O)[C@@H](NC(=O)[C@@H](CC(=O)NO)CC(C)C)C(C)(C)C [Compound 11, (R)—N1-((S)-3,3-dimethyl-1-(methylamino)-1-oxobutan-2-yl)-N4-hydroxy-2-isobutylsuccinamide]
- IC50 (human MMP-8): 1.4 nM
- IC50 [1]: 1300 nM
- IC50 (human MMP-9): 3.6 nM
- IC50 (human MMP-1): 2.8 nM
- inhibition at 100 µM (V8 protease): 0%
- inhibition of protease activity in skin wash samples (in words) ([2]; 50 μM, fluorogenic assay, AD patients): significant inhibition of protease activity
- % Inhibition protease activity with compound 11 ([2]; 50 μM, skin wash sample 5): 100%
- % Inhibition protease activity with compound 11 ([2]; 50 μM, skin wash sample 7): 48.7%
- % Inhibition protease activity with compound 11 ([2]; 50 μM, skin wash sample 14): 88.5%
- % Inhibition protease activity with compound 11 ([2]; 50 μM, skin wash sample 17): 96.4%
- % Inhibition protease activity with compound 11 ([2]; 50 μM, skin wash sample 18): 75.6%
- % Inhibition protease activity with compound 11 ([2]; 50 μM, skin wash sample 21): 85.1%
- % Inhibition protease activity with compound 11 ([2]; 50 μM, skin wash sample 26): 85.3%
- % Inhibition protease activity with compound 11 ([2]; 50 μM, skin wash sample 30): 100%
- % Inhibition protease activity with compound 11 ([2]; 50 μM, skin wash sample 36): 95.3%
- % Inhibition protease activity with compound 11 ([2]; 50 μM, skin wash sample 37): 81.8%
- % Inhibition protease activity with compound 11 ([2]; 50 μM, skin wash sample 39): 100%
- % Inhibition protease activity with compound 11 ([2]; 50 μM, skin wash sample 40): 85.6%
- % Inhibition protease activity with compound 11 ([2]; 50 μM, skin wash sample 43): 91.8%
- % Inhibition protease activity with compound 11 ([2]; 50 μM, skin wash sample 48): 96.9%
- Protease activity with 50 μM compound 11 ([2]; skin wash sample 5): 0 FIU/min/μl
- Protease activity with 50 μM compound 11 ([2]; skin wash sample 7): 0.271 FIU/min/μl
- Protease activity with 50 μM compound 11 ([2]; skin wash sample 14): 0.0761 FIU/min/μl
- Protease activity with 50 μM compound 11 ([2]; skin wash sample 17): 0.123 FIU/min/μl
- Protease activity with 50 μM compound 11 ([2]; skin wash sample 18): 0.0674 FIU/min/μl
- Protease activity with 50 μM compound 11 ([2]; skin wash sample 21): 0.0302 FIU/min/μl
- Protease activity with 50 μM compound 11 ([2]; skin wash sample 24 (activity without compound 0)): 0.00122 FIU/min/μl
- Protease activity with 50 μM compound 11 ([2]; skin wash sample 26): 0.0554 FIU/min/μl
- Protease activity with 50 μM compound 11 ([2]; skin wash sample 30): 0 FIU/min/μl
- Protease activity with 50 μM compound 11 ([2]; skin wash sample 36): 0.0173 FIU/min/μl
- Protease activity with 50 μM compound 11 ([2]; skin wash sample 37): 0.126 FIU/min/μl
- Protease activity with 50 μM compound 11 ([2]; skin wash sample 39): 0 FIU/min/μl
- Protease activity with 50 μM compound 11 ([2]; skin wash sample 40): 0.103 FIU/min/μl
- Protease activity with 50 μM compound 11 ([2]; skin wash sample 43): 0.0814 FIU/min/μl
- Protease activity with 50 μM compound 11 ([2]; skin wash sample 48): 0.0287 FIU/min/μl
- inhibition at 100 µM (staphopain B): 11%
- Viable cell counts, Cells/ml (S. aureus 8325-4): 1.6 × 10^9 Cells/ml

Structure (SMILES): CNC(=O)[C@@H](NC(=O)[C@H](CC(=O)NO)CC(C)C)C(C)(C)C [Compound 12, (S)—N1-((S)-3,3-dimethyl-1-(methylamino)-1-oxobutan-2-yl)-N4-hydroxy-2-isobutylsuccinamide]
- IC50 (human MMP-8): 1400 nM
- IC50 [1]: 1300 nM
- IC50 (human MMP-9): 4600 nM
- inhibition at 100 µM [3]: 0%
- IC50 (human MMP-1): 2300 nM
- inhibition at 100 µM (V8 protease): 0%
- inhibition at 100 µM [4]: 1%
- inhibition at 100 µM (staphopain B): 10%
- Viable cell counts, Cells/ml (S. aureus 8325-4): 1.3 × 10^9 Cells/ml

Source: US20070049518A1, “Novel method of treatment of inflammatory skin conditions” (priority 2005, published 2007)
